Results from the kinase profiling compilation of Christmann-Franck et al. (2016).

Experiments:
Assay in all cases: KINOMEscan competition binding
Details in all cases: compound 1.0 µM
AURKB (human) = AURKB (human) (UniProt Q96GD4)
MAPK4 (human) = MAPK4 (human) (UniProt P31152)
[1] = test system: FLT3 (human), P36888 [K663Q]
TNIK (human) = TNIK (human) (UniProt Q9UKE5)
CDK8 (human) = CDK8 (human) (UniProt P49336)
EPHA4 (human) = EPHA4 (human) (UniProt P54764)
NTRK3 (human) = NTRK3 (human) (UniProt Q16288)
AKT1 (human) = AKT1 (human) (UniProt P31749)
TIE1 (human) = TIE1 (human) (UniProt P35590)
MTOR (human) = MTOR (human) (UniProt P42345)
RPS6KA5 KD2 (human) = RPS6KA5 KD2 (human) (UniProt O75582)
FGFR4 (human) = FGFR4 (human) (UniProt P22455)
CAMK2B (human) = CAMK2B (human) (UniProt Q13554)
MAPK14 (human) = MAPK14 (human) (UniProt Q16539)
NEK1 (human) = NEK1 (human) (UniProt Q96PY6)
HIPK1 (human) = HIPK1 (human) (UniProt Q86Z02)
FLT4 (human) = FLT4 (human) (UniProt P35916)
PRKG1 (human) = PRKG1 (human) (UniProt Q13976)
FGFR1 (human) = FGFR1 (human) (UniProt P11362)
MAPK7 (human) = MAPK7 (human) (UniProt Q13164)
TSSK1B (human) = TSSK1B (human) (UniProt Q9BXA7)
CDKL2 (human) = CDKL2 (human) (UniProt Q92772)
ZAP70 (human) = ZAP70 (human) (UniProt P43403)
CSNK2A2 (human) = CSNK2A2 (human) (UniProt P19784)
STK17B (human) = STK17B (human) (UniProt O94768)
RPS6KB1 (human) = RPS6KB1 (human) (UniProt P23443)
FGFR3 (human) = FGFR3 (human) (UniProt P22607)
STK11 (human) = STK11 (human) (UniProt Q15831)
CSNK1G2 (human) = CSNK1G2 (human) (UniProt P78368)
RET (human) = RET (human) (UniProt P07949)
MAPK6 (human) = MAPK6 (human) (UniProt Q16659)
INSR (human) = INSR (human) (UniProt P06213)
CDK4 CCND1 (human) = CDK4 CCND1 (human) (UniProt P11802+P24385)
CSNK1D (human) = CSNK1D (human) (UniProt P48730)
CAMK2D (human) = CAMK2D (human) (UniProt Q13557)
[2] = test system: EGFR (human), P00533 [G719C]
CaMK1 (human) = CaMK1 (human) (UniProt Q14012)
BRSK1 (human) = BRSK1 (human) (UniProt Q8TDC3)
PRKD3 (human) = PRKD3 (human) (UniProt O94806)
MAP3K9 (human) = MAP3K9 (human) (UniProt P80192)
MAP3K12 (human) = MAP3K12 (human) (UniProt Q12852)
MAPKAPK5 (human) = MAPKAPK5 (human) (UniProt Q8IW41)

Chain of CDK4 CCND1 (human) (P11802 whole entry, looked up): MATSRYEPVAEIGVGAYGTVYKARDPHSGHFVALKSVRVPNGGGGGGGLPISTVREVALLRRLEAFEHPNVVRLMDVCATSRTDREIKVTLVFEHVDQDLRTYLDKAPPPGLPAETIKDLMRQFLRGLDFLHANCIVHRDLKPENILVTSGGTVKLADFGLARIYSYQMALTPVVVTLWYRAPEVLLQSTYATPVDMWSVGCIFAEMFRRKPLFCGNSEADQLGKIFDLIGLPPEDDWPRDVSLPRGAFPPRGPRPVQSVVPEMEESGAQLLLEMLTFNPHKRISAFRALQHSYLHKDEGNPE
Chain of CDK4 CCND1 (human) (P24385 whole entry, looked up): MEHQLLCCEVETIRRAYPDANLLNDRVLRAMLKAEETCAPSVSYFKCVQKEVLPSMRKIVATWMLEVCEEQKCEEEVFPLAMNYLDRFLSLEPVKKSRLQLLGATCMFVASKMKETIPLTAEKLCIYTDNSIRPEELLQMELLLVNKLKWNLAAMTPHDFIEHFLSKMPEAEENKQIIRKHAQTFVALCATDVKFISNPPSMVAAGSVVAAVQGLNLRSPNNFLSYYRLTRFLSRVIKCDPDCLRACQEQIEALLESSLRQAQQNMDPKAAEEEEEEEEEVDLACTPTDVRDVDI
Chain of INSR (human) (P06213 whole entry, looked up): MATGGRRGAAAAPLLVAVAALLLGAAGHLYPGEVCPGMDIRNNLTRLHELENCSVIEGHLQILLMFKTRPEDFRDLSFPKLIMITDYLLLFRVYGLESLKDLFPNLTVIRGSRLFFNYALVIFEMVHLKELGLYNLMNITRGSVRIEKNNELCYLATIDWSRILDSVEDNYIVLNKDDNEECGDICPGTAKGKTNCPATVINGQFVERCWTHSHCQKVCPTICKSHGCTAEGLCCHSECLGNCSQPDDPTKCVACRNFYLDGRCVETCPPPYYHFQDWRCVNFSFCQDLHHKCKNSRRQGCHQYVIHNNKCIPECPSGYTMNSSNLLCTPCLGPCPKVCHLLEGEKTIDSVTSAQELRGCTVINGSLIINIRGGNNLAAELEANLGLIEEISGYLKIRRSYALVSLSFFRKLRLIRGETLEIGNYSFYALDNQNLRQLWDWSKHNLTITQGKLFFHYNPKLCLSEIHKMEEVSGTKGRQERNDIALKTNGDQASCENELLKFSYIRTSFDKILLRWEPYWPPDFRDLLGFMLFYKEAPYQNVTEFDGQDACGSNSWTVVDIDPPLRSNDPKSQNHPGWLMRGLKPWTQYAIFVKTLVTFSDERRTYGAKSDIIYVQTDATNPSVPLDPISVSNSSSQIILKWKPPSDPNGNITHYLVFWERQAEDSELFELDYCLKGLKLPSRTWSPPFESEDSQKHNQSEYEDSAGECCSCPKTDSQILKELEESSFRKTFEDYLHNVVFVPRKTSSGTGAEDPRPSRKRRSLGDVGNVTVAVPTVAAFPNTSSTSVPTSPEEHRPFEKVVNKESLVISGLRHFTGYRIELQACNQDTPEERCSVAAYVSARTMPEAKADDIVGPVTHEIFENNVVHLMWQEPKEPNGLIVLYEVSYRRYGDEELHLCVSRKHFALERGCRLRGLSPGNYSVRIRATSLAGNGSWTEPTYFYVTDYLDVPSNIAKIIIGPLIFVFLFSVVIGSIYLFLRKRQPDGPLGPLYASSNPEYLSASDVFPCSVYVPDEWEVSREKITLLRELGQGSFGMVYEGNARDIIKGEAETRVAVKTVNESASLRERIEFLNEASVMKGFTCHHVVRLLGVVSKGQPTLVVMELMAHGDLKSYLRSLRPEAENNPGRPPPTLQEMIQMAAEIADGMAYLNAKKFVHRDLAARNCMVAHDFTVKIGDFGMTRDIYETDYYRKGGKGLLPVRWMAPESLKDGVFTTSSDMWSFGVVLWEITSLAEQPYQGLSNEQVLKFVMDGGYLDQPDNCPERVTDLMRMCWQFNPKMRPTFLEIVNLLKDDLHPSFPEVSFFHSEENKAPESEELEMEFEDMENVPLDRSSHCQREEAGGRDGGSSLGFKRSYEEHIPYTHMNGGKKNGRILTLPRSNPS
Chain of CSNK1G2 (human) (P78368 whole entry, looked up): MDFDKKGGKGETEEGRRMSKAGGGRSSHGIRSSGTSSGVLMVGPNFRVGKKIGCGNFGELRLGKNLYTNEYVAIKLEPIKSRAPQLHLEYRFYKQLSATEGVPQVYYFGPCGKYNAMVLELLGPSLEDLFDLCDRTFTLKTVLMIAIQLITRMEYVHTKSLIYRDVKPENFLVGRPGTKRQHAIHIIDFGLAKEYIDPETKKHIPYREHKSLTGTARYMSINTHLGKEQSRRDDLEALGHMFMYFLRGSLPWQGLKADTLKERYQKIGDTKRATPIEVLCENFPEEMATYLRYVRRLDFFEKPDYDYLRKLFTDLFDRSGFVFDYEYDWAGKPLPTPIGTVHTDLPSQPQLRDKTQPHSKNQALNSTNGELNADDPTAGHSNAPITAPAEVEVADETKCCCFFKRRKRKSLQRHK
Chain of MAP3K12 (human) (Q12852 whole entry, looked up): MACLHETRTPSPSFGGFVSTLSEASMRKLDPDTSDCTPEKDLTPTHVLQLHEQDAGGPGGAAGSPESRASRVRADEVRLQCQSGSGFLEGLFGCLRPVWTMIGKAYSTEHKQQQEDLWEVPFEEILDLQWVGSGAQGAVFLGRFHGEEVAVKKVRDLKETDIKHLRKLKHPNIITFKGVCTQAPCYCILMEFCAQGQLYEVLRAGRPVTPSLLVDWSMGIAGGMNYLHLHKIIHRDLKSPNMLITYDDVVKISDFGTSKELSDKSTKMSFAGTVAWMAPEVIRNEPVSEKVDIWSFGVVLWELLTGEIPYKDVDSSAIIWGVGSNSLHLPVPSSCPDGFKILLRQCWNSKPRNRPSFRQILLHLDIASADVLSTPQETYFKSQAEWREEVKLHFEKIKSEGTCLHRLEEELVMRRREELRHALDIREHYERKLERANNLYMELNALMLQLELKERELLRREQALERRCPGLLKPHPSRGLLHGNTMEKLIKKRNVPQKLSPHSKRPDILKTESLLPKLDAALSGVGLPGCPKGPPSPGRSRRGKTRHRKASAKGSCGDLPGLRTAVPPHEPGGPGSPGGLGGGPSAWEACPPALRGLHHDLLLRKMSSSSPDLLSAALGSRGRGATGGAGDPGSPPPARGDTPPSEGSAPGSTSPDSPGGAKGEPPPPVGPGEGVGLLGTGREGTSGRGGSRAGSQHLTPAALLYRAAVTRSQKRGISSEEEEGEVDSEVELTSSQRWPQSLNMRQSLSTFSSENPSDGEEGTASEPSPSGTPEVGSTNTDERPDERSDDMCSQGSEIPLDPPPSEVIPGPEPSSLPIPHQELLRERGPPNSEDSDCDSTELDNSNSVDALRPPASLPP
Chain of FGFR1 (human) (P11362 whole entry, looked up): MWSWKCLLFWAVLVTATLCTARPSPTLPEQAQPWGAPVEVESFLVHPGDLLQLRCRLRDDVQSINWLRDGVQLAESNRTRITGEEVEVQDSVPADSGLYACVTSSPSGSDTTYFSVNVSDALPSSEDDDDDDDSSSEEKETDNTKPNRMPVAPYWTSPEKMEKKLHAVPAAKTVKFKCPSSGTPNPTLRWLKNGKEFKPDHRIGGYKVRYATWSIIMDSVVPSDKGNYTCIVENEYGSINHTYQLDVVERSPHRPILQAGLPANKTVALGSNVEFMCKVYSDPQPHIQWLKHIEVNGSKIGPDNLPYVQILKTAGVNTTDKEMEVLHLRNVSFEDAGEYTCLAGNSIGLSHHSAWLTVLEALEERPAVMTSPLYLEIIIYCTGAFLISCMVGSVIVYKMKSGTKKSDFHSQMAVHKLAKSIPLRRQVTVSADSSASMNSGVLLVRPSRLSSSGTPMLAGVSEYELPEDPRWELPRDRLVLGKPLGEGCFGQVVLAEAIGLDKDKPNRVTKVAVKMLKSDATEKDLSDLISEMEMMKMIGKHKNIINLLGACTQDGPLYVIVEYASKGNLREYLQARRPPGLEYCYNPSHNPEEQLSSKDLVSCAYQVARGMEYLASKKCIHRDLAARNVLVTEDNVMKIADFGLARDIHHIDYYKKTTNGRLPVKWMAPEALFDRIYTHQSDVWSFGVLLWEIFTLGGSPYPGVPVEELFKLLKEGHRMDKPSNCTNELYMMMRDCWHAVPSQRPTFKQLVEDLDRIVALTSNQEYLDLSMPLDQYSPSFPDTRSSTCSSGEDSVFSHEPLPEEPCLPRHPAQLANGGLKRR
Chain of RPS6KA5 KD2 (human) (O75582 whole entry, looked up): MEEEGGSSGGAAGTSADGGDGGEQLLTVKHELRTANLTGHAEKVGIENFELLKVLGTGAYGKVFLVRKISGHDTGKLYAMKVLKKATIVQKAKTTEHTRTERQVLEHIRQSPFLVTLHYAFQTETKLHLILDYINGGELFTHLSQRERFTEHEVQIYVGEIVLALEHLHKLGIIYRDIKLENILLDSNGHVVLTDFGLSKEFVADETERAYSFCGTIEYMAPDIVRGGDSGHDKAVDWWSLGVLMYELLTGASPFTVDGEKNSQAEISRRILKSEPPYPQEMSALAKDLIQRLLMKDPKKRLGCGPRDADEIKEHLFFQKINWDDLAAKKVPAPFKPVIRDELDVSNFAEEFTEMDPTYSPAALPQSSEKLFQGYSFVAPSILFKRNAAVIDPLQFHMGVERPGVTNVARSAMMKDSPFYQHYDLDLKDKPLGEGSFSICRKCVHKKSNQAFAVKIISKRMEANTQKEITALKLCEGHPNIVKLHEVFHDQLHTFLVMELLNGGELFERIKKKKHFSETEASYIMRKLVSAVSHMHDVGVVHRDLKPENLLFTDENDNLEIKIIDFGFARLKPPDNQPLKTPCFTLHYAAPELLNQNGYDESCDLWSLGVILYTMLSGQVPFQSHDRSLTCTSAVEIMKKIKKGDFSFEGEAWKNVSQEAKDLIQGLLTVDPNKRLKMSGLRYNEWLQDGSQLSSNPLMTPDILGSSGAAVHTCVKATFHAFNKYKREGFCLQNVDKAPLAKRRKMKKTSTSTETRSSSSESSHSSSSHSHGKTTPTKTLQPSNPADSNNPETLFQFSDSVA

CN(C)C/C=C/C(=O)Nc1cccc(C(=O)Nc2ccc(Nc3nccc(/C(C#N)=C4\Nc5ccccc5S4)n3)cc2)c1
kinase still bound, per cent of control (AURKB (human)): 83% | kinase still bound, per cent of control (MAPK4 (human)): 100% | kinase still bound, per cent of control [1]: 37% | kinase still bound, per cent of control (TNIK (human)): 100% | kinase still bound, per cent of control (CDK8 (human)): 100% | kinase still bound, per cent of control (EPHA4 (human)): 100% | kinase still bound, per cent of control (NTRK3 (human)): 97% | kinase still bound, per cent of control (AKT1 (human)): 6.6% | kinase still bound, per cent of control (TIE1 (human)): 70% | kinase still bound, per cent of control (MTOR (human)): 100% | kinase still bound, per cent of control (RPS6KA5 KD2 (human)): 100% | kinase still bound, per cent of control (FGFR4 (human)): 100% | kinase still bound, per cent of control (CAMK2B (human)): 100% | kinase still bound, per cent of control (MAPK14 (human)): 95% | kinase still bound, per cent of control (NEK1 (human)): 100% | kinase still bound, per cent of control (HIPK1 (human)): 100% | kinase still bound, per cent of control (FLT4 (human)): 78% | kinase still bound, per cent of control (PRKG1 (human)): 100% | kinase still bound, per cent of control (FGFR1 (human)): 100% | kinase still bound, per cent of control (MAPK7 (human)): 100% | kinase still bound, per cent of control (TSSK1B (human)): 100% | kinase still bound, per cent of control (CDKL2 (human)): 28% | kinase still bound, per cent of control (ZAP70 (human)): 81% | kinase still bound, per cent of control (CSNK2A2 (human)): 8% | kinase still bound, per cent of control (STK17B (human)): 100% | kinase still bound, per cent of control (RPS6KB1 (human)): 100% | kinase still bound, per cent of control (FGFR3 (human)): 100% | kinase still bound, per cent of control (STK11 (human)): 90% | kinase still bound, per cent of control (CSNK1G2 (human)): 22% | kinase still bound, per cent of control (RET (human)): 91% | kinase still bound, per cent of control (MAPK6 (human)): 27% | kinase still bound, per cent of control (INSR (human)): 100% | kinase still bound, per cent of control (CDK4 CCND1 (human)): 100% | kinase still bound, per cent of control (CSNK1D (human)): 26% | kinase still bound, per cent of control (CAMK2D (human)): 100% | kinase still bound, per cent of control [2]: 86% | kinase still bound, per cent of control (CaMK1 (human)): 100% | kinase still bound, per cent of control (BRSK1 (human)): 90% | kinase still bound, per cent of control (PRKD3 (human)): 100% | kinase still bound, per cent of control (MAP3K9 (human)): 100% | kinase still bound, per cent of control (MAP3K12 (human)): 100% | kinase still bound, per cent of control (MAPKAPK5 (human)): 100%

Cc1cc(NC(=O)c2cccc(NC(=O)/C=C/CN(C)C)c2)ccc1Nc1nccc(-c2cccnc2)n1
kinase still bound, per cent of control (AURKB (human)): 82% | kinase still bound, per cent of control (MAPK4 (human)): 81% | kinase still bound, per cent of control [1]: 75% | kinase still bound, per cent of control (TNIK (human)): 56% | kinase still bound, per cent of control (CDK8 (human)): 51% | kinase still bound, per cent of control (EPHA4 (human)): 100% | kinase still bound, per cent of control (NTRK3 (human)): 79% | kinase still bound, per cent of control (AKT1 (human)): 100% | kinase still bound, per cent of control (TIE1 (human)): 91% | kinase still bound, per cent of control (MTOR (human)): 100% | kinase still bound, per cent of control (RPS6KA5 KD2 (human)): 97% | kinase still bound, per cent of control (FGFR4 (human)): 100% | kinase still bound, per cent of control (CAMK2B (human)): 100% | kinase still bound, per cent of control (MAPK14 (human)): 100% | kinase still bound, per cent of control (NEK1 (human)): 81% | kinase still bound, per cent of control (HIPK1 (human)): 100% | kinase still bound, per cent of control (FLT4 (human)): 100% | kinase still bound, per cent of control (PRKG1 (human)): 72% | kinase still bound, per cent of control (FGFR1 (human)): 94% | kinase still bound, per cent of control (MAPK7 (human)): 100% | kinase still bound, per cent of control (TSSK1B (human)): 100% | kinase still bound, per cent of control (CDKL2 (human)): 82% | kinase still bound, per cent of control (ZAP70 (human)): 79% | kinase still bound, per cent of control (CSNK2A2 (human)): 39% | kinase still bound, per cent of control (STK17B (human)): 72% | kinase still bound, per cent of control (RPS6KB1 (human)): 100% | kinase still bound, per cent of control (FGFR3 (human)): 100% | kinase still bound, per cent of control (STK11 (human)): 100% | kinase still bound, per cent of control (CSNK1G2 (human)): 73% | kinase still bound, per cent of control (RET (human)): 100% | kinase still bound, per cent of control (MAPK6 (human)): 37% | kinase still bound, per cent of control (INSR (human)): 14% | kinase still bound, per cent of control (CDK4 CCND1 (human)): 92% | kinase still bound, per cent of control (CSNK1D (human)): 18% | kinase still bound, per cent of control (CAMK2D (human)): 100% | kinase still bound, per cent of control [2]: 81% | kinase still bound, per cent of control (CaMK1 (human)): 81% | kinase still bound, per cent of control (BRSK1 (human)): 100% | kinase still bound, per cent of control (PRKD3 (human)): 80% | kinase still bound, per cent of control (MAP3K9 (human)): 100% | kinase still bound, per cent of control (MAP3K12 (human)): 99% | kinase still bound, per cent of control (MAPKAPK5 (human)): 74%
